From patent US20250270173A1, “PYRIDINE DERIVATIVES FOR TREATING PSYCHIATRIC DISORDERS” (GILGAMESH PHARMACEUTICALS, INC., priority 2022, published 2025)
Where “and” joins values, the source holds several entries; their conditions need not be identical. Equal entries are not always repeated.

Experiments:
[1] = target: 5-HT2A receptor (Homo sapiens (Human), UniProt P28223); assay: FLIPR Ca2+ flux functional assay at 5-HT2A (HEK293); conditions: for 5-HT2A % Act @ Max Conc.: Ca2+ flux, HEK293, at max concentration
[2] = target: 5-HT2B receptor (Homo sapiens (Human), UniProt P41595); assay: FLIPR Ca2+ flux functional assay at 5-HT2B (HEK293); conditions: for 5-HT2B % Act @ Max Conc.: Ca2+ flux, HEK293, at max concentration
Chain of 5-HT2B receptor (P41595 whole entry, looked up): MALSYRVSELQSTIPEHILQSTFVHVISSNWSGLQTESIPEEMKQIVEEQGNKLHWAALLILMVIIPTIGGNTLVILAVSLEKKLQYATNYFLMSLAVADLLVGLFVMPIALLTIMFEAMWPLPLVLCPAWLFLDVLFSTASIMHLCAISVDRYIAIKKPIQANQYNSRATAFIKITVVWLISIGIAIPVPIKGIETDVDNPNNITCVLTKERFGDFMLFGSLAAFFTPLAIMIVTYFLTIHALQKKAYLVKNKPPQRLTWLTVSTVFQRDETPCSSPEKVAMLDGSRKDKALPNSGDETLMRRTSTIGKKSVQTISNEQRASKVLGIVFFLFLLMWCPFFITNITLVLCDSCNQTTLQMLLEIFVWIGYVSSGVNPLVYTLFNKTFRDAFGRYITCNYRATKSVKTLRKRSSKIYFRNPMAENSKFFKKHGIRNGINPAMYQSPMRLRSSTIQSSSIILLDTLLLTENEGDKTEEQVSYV

[3] = target: 5-HT1A receptor (Homo sapiens (Human), UniProt P08908); assay: FLIPR Ca2+ flux functional assay at 5-HT1A (CHO cells); conditions: for 5-HT1A % Act @ Max Conc.: Ca2+ flux, CHO cells, at max concentration
[4] = target: human 5-HT2C receptor (Homo sapiens (Human), UniProt P28335); assay: FLIPR Ca2+ flux functional assay at 5-HT2C (Eurofins DiscoverX); type: cell-based; conditions: Ca2+ flux, human 5-HT2C, at max concentration
Chain of human 5-HT2C receptor (P28335 whole entry, looked up): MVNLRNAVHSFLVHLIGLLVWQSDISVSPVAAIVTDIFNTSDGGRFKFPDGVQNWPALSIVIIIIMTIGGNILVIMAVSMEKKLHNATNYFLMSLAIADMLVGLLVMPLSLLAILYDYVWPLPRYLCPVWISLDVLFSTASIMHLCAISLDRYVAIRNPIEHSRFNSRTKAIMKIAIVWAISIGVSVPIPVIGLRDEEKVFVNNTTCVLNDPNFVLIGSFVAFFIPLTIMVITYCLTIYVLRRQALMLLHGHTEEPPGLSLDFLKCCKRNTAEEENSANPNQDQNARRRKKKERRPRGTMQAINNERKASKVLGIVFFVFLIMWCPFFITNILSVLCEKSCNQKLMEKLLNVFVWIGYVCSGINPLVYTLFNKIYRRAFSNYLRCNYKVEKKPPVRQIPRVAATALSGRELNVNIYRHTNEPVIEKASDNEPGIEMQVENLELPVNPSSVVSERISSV
Experimental: Functional Assays at 5-HT2C Receptors. […] Probenecid was prepared fresh. Cells were loaded with dye prior to testing and incubated at 37° C. for 30-60 minutes. After dye loading, cells were removed from the incubator and 10 μL HBSS/20 mM Hepes was added. 3× vehicle was included in the assay buffer. Cells were incubated for 30 mins at room temperature in the dark to equilibrate plate temperature. Intermediate dilution of sample stocks was performed to generate 4× sample in assay buffer. Compound agonist activity was measured on a FLIPR Tetra (MDS). Calcium mobilization was monitored for 2 minutes and 10 μL 4× sample in HBSS/20 mM Hepes was added to the cells 5 seconds into the assay.

[5] = tested on: C57BL/6 mice; assay: Automated (video tracking) head twitch response (HTR) assay in mice; type: in vivo; conditions: SC; for ED50: Mus musculus, 20 min, 20 min recording, read-out: ED50; for Most Efficacious Dose; mg/kg: dose giving the most HTR
Experimental: Disclosed compounds were tested for their ability to induce a head twitch response (HTR) in mice using an automated video tracking procedure, with the results summarized in Table 5. […] The phenyl Compound 44 was substantially more efficacious at inducing HTR than its pyridine counterpart Compound 29, in agreement with the generally lower maximal efficacy of the disclosed pyridine compounds for signaling through 5-HT2A receptors.
Animals. Adult male C57BL/6 mice aged 8-10 weeks (body weight 20-25 g) were used in these experiments. Animals were housed under controlled temperatures and 12-hour light/dark cycles (lights on between 07:00-19:00 h), with ad libitum food and water. The protocol was approved by the Institutional Animal Care and Use Committee at the study site. This study was carried out in strict accordance with the recommendations in the Guide for the Care and Use of Laboratory Animals of the National Institutes of Health. All efforts were made to minimize suffering.
Drugs and Drug Administration. […] was commercially obtained. Disclosed compounds were synthesized as described above. They were administered subcutaneously (SC) dissolved in saline (or saline acidified with 1-2 molar equivalents HCl to form the salt in situ for freebase compounds) at a volume of 10 mL/kg. Five doses were tested, with N=5-8 animals/group. Doses were calculated on the basis of the freebase, except for DOI, which was calculated based on the HCl salt.
Procedure. Mice were administered one dose of the drug and immediately placed into a small open field for behavioral observation. High-speed video of animals' behavior was captured continuously for 20 min. Video recordings were imported into an image processing software, which detects multiple points of interest on each animal's body, including the left and right ear. HTR events were defined as periodic deviations of ear locations from temporally averaged ear locations. Predefined thresholds for magnitude and frequency of location deviations were used to filter […] events from random head movements. The method was validated by comparing detected events with manual (human) observations and found to have an accuracy >95%. The total number of HTR events counted during the 20-min recording were determined for each animal at each dose.
Statistical Analysis. Analysis was performed using GraphPad Prism 9. Dose-response curves were fit via non-linear regression using the Gaussian 2020 function in Prism in order to determine the ED50 and Emax for each compound.

Structure (SMILES): CCSc1cc(OC)c(CC(C)N)nc1OC (stereo not drawn) [Compound 23, 1-(5-(ethylthio)-3,6-dimethoxypyridin-2-yl)propan-2-amine]
- EC50 [1]: 3.03 nM
- 5-HT2A % Act @ Max Conc. [1]: 106.2%
- EC50 [2]: 44.5 nM
- 5-HT2B % Act @ Max Conc. [2]: 67.46%
- EC50 [3]: > 100000 nM
- 5-HT1A % Act @ Max Conc. [3]: 3.21%

Structure (SMILES): CCC(N)Cc1nc(OC)c(C)cc1OC (stereo not drawn) [Compound 2, 1-(3,6-dimethoxy-5-methylpyridin-2-yl)butan-2-amine]
- EC50 [1]: 847 nM
- 5-HT2A % Act @ Max Conc. [1]: 69.78%

Structure (SMILES): CCCCCCc1cc(OC)c(CCN)cc1OC [Compound 44, reference compound]
- 5-HT2C % Act @ Max Conc. [4]: 82.62%
- ED50 [5]: 1.36 mg/kg
- Emax (HTR counts/20 min) [5]: 57.87 HTR counts/20 min
- # HTR/20 min at Most Efficacious Dose [5]: 58.0 HTR/20 min
- Most Efficacious Dose; mg/kg [5]: (3.2) mg/kg
- 5-HT2A % Act @ Max Conc. [1]: 90.51%
- 5-HT2B % Act @ Max Conc. [2]: 46.79%
- 5-HT1A % Act @ Max Conc. [3]: 183.21%

Structure (SMILES): COc1cc(C)c(OC)nc1CCN [Compound 8, 2-(3,6-dimethoxy-5-methylpyridin-2-yl)ethan-1-amine]
- EC50 [1]: 65.8 nM
- 5-HT2A % Act @ Max Conc. [1]: 85.81%
- EC50 [2]: 1010 nM
- 5-HT2B % Act @ Max Conc. [2]: 36.99%
- EC50 [3]: > 100000 nM
- 5-HT1A % Act @ Max Conc. [3]: −0.62%

Structure (SMILES): COc1cc(CCN)cc(OC)c1OC [Mescaline, reference compound]
- 5-HT2C % Act @ Max Conc. [4]: 91.1%
- 5-HT2A % Act @ Max Conc. [1]: 102%
- 5-HT2B % Act @ Max Conc. [2]: 45.4%
- 5-HT1A % Act @ Max Conc. [3]: −5.03%

Structure (SMILES): CCSc1cc(OC)c(CCN)nc1OC [Compound 22, 2-(5-(ethylthio)-3,6-dimethoxypyridin-2-yl)ethan-1-amine]
- EC50 [1]: 4.09 nM
- 5-HT2A % Act @ Max Conc. [1]: 94.73%
- EC50 [2]: 215 nM
- 5-HT2B % Act @ Max Conc. [2]: 22.75%
- EC50 [3]: > 100000 nM
- 5-HT1A % Act @ Max Conc. [3]: −1.51%

Structure (SMILES): CCSc1cc(OC)c(CC(N)CC)nc1OC (stereo not drawn) [Compound 24, 1-(5-(ethylthio)-3,6-dimethoxypyridin-2-yl)butan-2-amine]
- EC50 [1]: 74.6 nM
- 5-HT2A % Act @ Max Conc. [1]: 77.03%
- EC50 [2]: > 10000 nM
- 5-HT2B % Act @ Max Conc. [2]: 14.99%
- EC50 [3]: > 100000 nM
- 5-HT1A % Act @ Max Conc. [3]: 2.99%

Structure (SMILES): CCCc1cc(OC)c(CC(N)CC)cc1OC (stereo not drawn) [Compound 40, reference compound]
- 5-HT2C % Act @ Max Conc. [4]: 93.58%
- 5-HT2A % Act @ Max Conc. [1]: 84.23%
- 5-HT2B % Act @ Max Conc. [2]: −0.18%
- 5-HT1A % Act @ Max Conc. [3]: 96.43%

Structure (SMILES): CCCCCc1cc(OC)c(CC(N)CC)cc1OC (stereo not drawn) [Compound 10, 1-(2,5-dimethoxy-4-pentylphenyl)butan-2-amine]
- 5-HT2C % Act @ Max Conc. [4]: 115%
- 5-HT2A % Act @ Max Conc. [1]: 72% and 71.5%
- 5-HT2B % Act @ Max Conc. [2]: 0.211%
- 5-HT1A % Act @ Max Conc. [3]: 33.1%

Structure (SMILES): CCCCCc1cc(OC)c(CCN)cc1OC [Compound 43, reference compound]
- 5-HT2C % Act @ Max Conc. [4]: 85.6%
- 5-HT2A % Act @ Max Conc. [1]: 105.2%
- 5-HT2B % Act @ Max Conc. [2]: 62.2%
- 5-HT1A % Act @ Max Conc. [3]: 18.9%

Structure (SMILES): CCCCCc1cc(OC)c(CC(C)N)cc1OC (stereo not drawn) [Compound 41, reference compound]
- 5-HT2C % Act @ Max Conc. [4]: 90.1%
- 5-HT2A % Act @ Max Conc. [1]: 100.2%
- 5-HT2B % Act @ Max Conc. [2]: 20.0%
- 5-HT1A % Act @ Max Conc. [3]: 15.0%

Structure (SMILES): CCCc1cc(OC)c(CC(N)CC)nc1OC (stereo not drawn) [Compound 37, 1-(3,6-dimethoxy-5-propylpyridin-2-yl)butan-2-amine]
- EC50 [1]: 128 nM
- 5-HT2A % Act @ Max Conc. [1]: 49.58%
- EC50 [2]: > 10000 nM
- 5-HT2B % Act @ Max Conc. [2]: 12.18%
- EC50 [3]: > 100000 nM
- 5-HT1A % Act @ Max Conc. [3]: 42.24%

Structure (SMILES): COc1cc(C2CC2)c(OC)nc1CCN [Compound 26, 2-(5-cyclopropyl-3,6-dimethoxypyridin-2-yl)ethan-1-amine]
- EC50 [1]: 27 nM
- 5-HT2A % Act @ Max Conc. [1]: 81.58%
- EC50 [2]: > 10000 nM
- 5-HT2B % Act @ Max Conc. [2]: 5.16%
- EC50 [3]: > 100000 nM
- 5-HT1A % Act @ Max Conc. [3]: 2.22%

Structure (SMILES): CCCCCc1nc(OC)c(CC(N)CC)cc1OC (stereo not drawn) [Compound 11, 1-(2,5-dimethoxy-6-pentylpyridin-3-yl)butan-2-amine]
- EC50 [1]: 356 nM
- 5-HT2A % Act @ Max Conc. [1]: 62.2%
- 5-HT2B % Act @ Max Conc. [2]: 6.92%
- EC50 [3]: 19200 nM
- 5-HT1A % Act @ Max Conc. [3]: 197%

Structure (SMILES): COc1cc(C)c(OC)nc1CC(C)N (stereo not drawn) [Compound 5, 1-(3,6-dimethoxy-5-methylpyridin-2-yl)propan-2-amine]
- EC50 [1]: 30 nM
- 5-HT2A % Act @ Max Conc. [1]: 104.25%
- EC50 [2]: 575 nM
- 5-HT2B % Act @ Max Conc. [2]: 68.46%
- EC50 [3]: > 100000 nM
- 5-HT1A % Act @ Max Conc. [3]: 0.59%

Structure (SMILES): COc1cc(Br)c(OC)nc1CC(C)N (stereo not drawn) [Compound 6, 1-(5-bromo-3,6-dimethoxypyridin-2-yl)propan-2-amine]
- EC50 [1]: 2.13 nM
- 5-HT2A % Act @ Max Conc. [1]: 95.6%
- EC50 [2]: 170 nM
- 5-HT2B % Act @ Max Conc. [2]: 70.54%
- EC50 [3]: > 100000 nM
- 5-HT1A % Act @ Max Conc. [3]: 1.66%

Structure (SMILES): CCCCCCc1cc(OC)c(CCN)nc1OC [Compound 29, 2-(5-hexyl-3,6-dimethoxypyridin-2-yl)ethan-1-amine]
- ED50 [5]: 7.46 mg/kg
- Emax (HTR counts/20 min) [5]: 22.11 HTR counts/20 min
- # HTR/20 min at Most Efficacious Dose [5]: 23 HTR/20 min
- Most Efficacious Dose; mg/kg [5]: (3.2) mg/kg
- EC50 [1]: 34.6 nM
- 5-HT2A % Act @ Max Conc. [1]: 69.91%
- EC50 [2]: > 10000 nM
- 5-HT2B % Act @ Max Conc. [2]: 7.78%
- EC50 [3]: > 100000 nM

Structure (SMILES): CCCCCCc1cc(OC)c(CC(C)N)cc1OC (stereo not drawn) [Compound 42, reference compound]
- 5-HT2C % Act @ Max Conc. [4]: 99.8%
- 5-HT2A % Act @ Max Conc. [1]: 119.7%
- 5-HT2B % Act @ Max Conc. [2]: 39.8%
- 5-HT1A % Act @ Max Conc. [3]: 30.4%

Structure (SMILES): CCCCCc1nc(OC)c(CC(N)CC)nc1OC (stereo not drawn) [Compound 12, 1-(3,6-dimethoxy-5-pentylpyrazin-2-yl)butan-2-amine]
- EC50 [1]: > 3160 nM
- 5-HT2A % Act @ Max Conc. [1]: 37.1%
- 5-HT2B % Act @ Max Conc. [2]: 7.05%
- EC50 [3]: 33300 nM
- 5-HT1A % Act @ Max Conc. [3]: 170%

Structure (SMILES): CCc1cc(OC)c(CC(N)CC)nc1OC (stereo not drawn) [Compound 21, 1-(5-ethyl-3,6-dimethoxypyridin-2-yl)butan-2-amine]
- EC50 [1]: 170 nM
- 5-HT2A % Act @ Max Conc. [1]: 73.61%

Structure (SMILES): CCC(N)Cc1cc(OC)c(C)cc1OC (stereo not drawn) [Compound 39, reference compound]
- 5-HT2C % Act @ Max Conc. [4]: 99.3%
- 5-HT2A % Act @ Max Conc. [1]: 112.8%
- 5-HT2B % Act @ Max Conc. [2]: 39.2%
- 5-HT1A % Act @ Max Conc. [3]: 8.7%

Structure (SMILES): CCC(N)Cc1nc(OC)c(C2CC2)cc1OC (stereo not drawn) [Compound 28, 1-(5-cyclopropyl-3,6-dimethoxypyridin-2-yl)butan-2-amine]
- EC50 [1]: 161 nM
- 5-HT2A % Act @ Max Conc. [1]: 71.49%

Structure (SMILES): CCC(N)Cc1nc(OC)c(Br)cc1OC (stereo not drawn) [Compound 3, 1-(5-bromo-3,6-dimethoxypyridin-2-yl)butan-2-amine]
- EC50 [1]: 136 nM
- 5-HT2A % Act @ Max Conc. [1]: 70.17%
